The conditions of this data set: same subject; Celebrex initiated and stopped after 3 days.

With `Cc1ccc(-c2cc(C(F)(F)F)nn2-c2ccc(S(N)(=O)=O)cc2)cc1` [Celebrex, celecoxib], the “Side effects leading to discontinuation” value is “drowsiness and GI side effects”.

These data come from patent publication US12403091B2, “Delivery system” (SMARTECH TOPICAL, INC., priority 2016, dated 2025).
